Test results from patent publication US9969742B2, “Imidazotriazinone compounds” (Ironwood Pharmaceuticals, Inc., priority 2012, dated 2018).
Like-named read-outs stand apart in the source and are kept apart here.

Columns and labels:
Format in all cases: biochemical
PDE9A2 = biological target: T1, PDE9A2 (Homo sapiens, UniProt O76083); assay: Phosphodiesterase enzyme screening assay, PDE9A2; conditions: 4.0 μM cGMP substrate, 1 hour at R.T., read-out: Band (PDE9A2 IC50)
T1 construct: purchased Reaction Biology Corporation, Malvern, Pa
T1 sequence (O76083 1-533 isoform O76083-2): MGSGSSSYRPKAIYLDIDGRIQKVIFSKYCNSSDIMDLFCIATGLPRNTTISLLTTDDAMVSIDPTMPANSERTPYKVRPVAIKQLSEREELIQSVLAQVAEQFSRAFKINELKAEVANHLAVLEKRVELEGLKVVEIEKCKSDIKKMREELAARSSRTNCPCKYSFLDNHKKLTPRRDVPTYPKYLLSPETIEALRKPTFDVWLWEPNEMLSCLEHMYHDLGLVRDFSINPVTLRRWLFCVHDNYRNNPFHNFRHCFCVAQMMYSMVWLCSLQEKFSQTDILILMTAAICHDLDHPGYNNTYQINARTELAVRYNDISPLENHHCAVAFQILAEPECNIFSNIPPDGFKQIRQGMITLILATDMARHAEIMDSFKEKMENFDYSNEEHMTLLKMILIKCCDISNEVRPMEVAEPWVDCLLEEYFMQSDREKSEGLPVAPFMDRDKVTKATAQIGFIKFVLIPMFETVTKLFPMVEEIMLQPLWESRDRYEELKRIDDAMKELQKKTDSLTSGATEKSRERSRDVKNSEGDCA
How it was run: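 Recombinant enzymes were run in 100 mM HEPES pH 7.5, 5 mM MgCl2, 1 mM DTT, 0.003% Brij with 4.0 μM cGMP substrate, started with cGMP or cAMP, 1 h at RT, and stopped with EDTA. Fluorescent substrate and product were separated by microfluidic mobility shift.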

PDE1A = biological target: T2, PDE1A (Homo sapiens, UniProt P54750); assay: Phosphodiesterase enzyme screening assay, PDE1A
T2 construct: purchased Reaction Biology Corporation, Malvern, Pa
T2 sequence (P54750 whole entry): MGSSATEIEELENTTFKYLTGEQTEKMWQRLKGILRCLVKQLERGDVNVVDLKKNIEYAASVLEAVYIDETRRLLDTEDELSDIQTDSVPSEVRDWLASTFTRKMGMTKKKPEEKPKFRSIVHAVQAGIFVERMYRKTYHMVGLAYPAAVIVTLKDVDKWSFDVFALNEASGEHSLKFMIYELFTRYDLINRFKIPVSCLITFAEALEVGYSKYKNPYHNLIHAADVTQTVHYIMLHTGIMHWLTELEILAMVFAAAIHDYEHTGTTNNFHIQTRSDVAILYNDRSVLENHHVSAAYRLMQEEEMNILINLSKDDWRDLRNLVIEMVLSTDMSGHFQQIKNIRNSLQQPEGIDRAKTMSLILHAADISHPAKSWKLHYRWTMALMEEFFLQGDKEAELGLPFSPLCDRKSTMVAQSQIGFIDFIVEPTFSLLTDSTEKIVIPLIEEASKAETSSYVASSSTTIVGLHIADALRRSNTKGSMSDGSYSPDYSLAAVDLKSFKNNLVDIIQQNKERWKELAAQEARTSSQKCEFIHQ
From the text: (§1) Compounds of the invention were screened against PDE1A, PDE1B, PDE2A, PDE3A, PDE3B, PDE4A1A, PDE4B1, PDE4D3, PDE5A1, PDE6C, PDE7A, PDE8A1, PDE9A2, PDE10A2 AND PDE11A isoforms of the phosphodiesterase enzyme to determine activity and overall selectivity through comparative analysis. […] Where 8-methoxy-IBMX and Zaprinast were used as reference inhibitors.
(§2) The phosphodiesterase enzyme isoforms were obtained from a commercial retailer (Reaction Biology Corporation, Malvern, Pa.) for use in the instant screening assay.
(§3) The analysis was completed using the Caliper LabChip 3000 and a 12-sipper LabChip. LabChip assays are separations-based, meaning that the product and substrate are electrophoretically separated, thereby minimizing interferences and yielding the highest data quality available on any screening platform. […] High Z′ values, few false positives, few false negatives and analytical quality reproducibility are the reasons cited for the increasing reliance on the LabChip assays.
(§4) The off-chip incubation mobility-shift phosphodiesterase assay uses a microfluidic chip to measure the conversion of a fluorescent cyclic AMP substrate to a 5′-AMP product, or a cyclic GMP substrate to a 5′-GMP product. The reaction mixture, from a microtiter plate well, is introduced through a capillary sipper onto the chip, where the fluorescent substrate and product are separated by electrophoresis and detected via laser-induced fluorescence. […] The precision of microfluidics allows researchers to detect subtle interactions between drug candidates and therapeutic targets.
(§5) Reactions were carried out in 100 mM HEPES (pH 7.5), 5 mM MgCl2, 1 mM DTT, 0.003% Brij, 4.0 μM cGMP substrate. The reaction was started by addition of cGMP or cAMP and incubated for 1 hour at R.T. The reaction was terminated by the addition of stop buffer containing 100 mM HEPES (pH 7.5), 15 mM EDTA, 0.015% Brij-35, 5% DMSO. Cyclic AMP/GMP substrate and 5′-AMP/5′-GMP product were separated by charge using electrophoretic mobility shift. Product formed was compared to control wells to determine inhibition or enhancement of enzyme activity.
(§6) Data points were averages of quadruplicate wells and error bars represented the SEM for each point.

PDE1B = biological target: T3, PDE1B (Homo sapiens, UniProt Q01064); assay: Phosphodiesterase enzyme screening assay, PDE1B
T3 construct: purchased Reaction Biology Corporation, Malvern, Pa
T3 sequence (Q01064 whole entry): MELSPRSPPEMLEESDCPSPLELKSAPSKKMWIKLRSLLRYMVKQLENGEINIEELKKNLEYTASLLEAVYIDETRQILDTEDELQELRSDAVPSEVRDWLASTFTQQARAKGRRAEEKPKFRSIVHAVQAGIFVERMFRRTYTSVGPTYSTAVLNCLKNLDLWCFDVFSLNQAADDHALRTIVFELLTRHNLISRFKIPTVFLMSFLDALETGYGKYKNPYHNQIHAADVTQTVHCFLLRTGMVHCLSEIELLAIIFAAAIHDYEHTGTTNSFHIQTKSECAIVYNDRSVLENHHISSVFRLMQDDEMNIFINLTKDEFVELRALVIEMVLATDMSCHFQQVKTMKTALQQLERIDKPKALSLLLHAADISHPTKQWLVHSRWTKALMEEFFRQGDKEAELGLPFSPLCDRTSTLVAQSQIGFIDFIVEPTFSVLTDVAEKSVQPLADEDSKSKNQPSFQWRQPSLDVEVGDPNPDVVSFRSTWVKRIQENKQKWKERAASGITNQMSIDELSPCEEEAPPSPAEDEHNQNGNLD
From the text: as §1, §2, §3, §4, §5, §6

[1] = Table 1, ratio of IC50 values, value greater than 1 indicates greater selectivity for PDE9A2
[2] = ratio of IC50 values PDE1A / PDE9A2, value greater than 1 = greater selectivity for PDE9A2
[3] = ratio of IC50 values PDE1B / PDE9A2, value greater than 1 = greater selectivity for PDE9A2

| Compound | IC50 (PDE9A2; Table 1, 10 concentrations) [nM] | PDE1A selectivity (versus PDE9A2) (PDE1A; [1]) | PDE1B selectivity (versus PDE9A2) (PDE1B; [1]) | other results |
| --- | --- | --- | --- | --- |
| C[C@@H]1CN(Cc2ncccn2)C[C@H]1c1nn2c(C3CCOCC3)ncc2c(=O)[nH]1 (relative stereo) [(+)-2-((3,4-trans)-4-, (+)-2-((3,4-trans)-4-methyl-1-(pyrimidin-2-ylmethyl)pyrrolidin-3-yl)-7-(tetrahydro-2H-pyran-4-yl)imidazo[5,1-f][1,2,4]triazin-4(3H)-one] |  |  |  | IC50 (PDE9A2; Table 3): < 1000 nM; PDE1A selectivity (versus PDE9A2) (PDE1A; ratio of IC50 values, PDE1A versus PDE9A2, value greater than 1 = greater selectivity for PDE9A2): 214; PDE1B selectivity (versus PDE9A2) (PDE1B; ratio of IC50 values, PDE1B versus PDE9A2, value greater than 1 = greater selectivity for PDE9A2): 456 |
| C[C@@H]1CN(Cc2ccc3cccnc3c2)C[C@H]1c1nn2c(C3CCOCC3)ncc2c(=O)[nH]1 (relative stereo) [(+)-2-((3,4-trans)-4-methyl-1-(quinolin-7-ylmethyl)pyrrolidin-3-yl)-7-(tetrahydro-2H-pyran-4-yl)imidazo[5,1-f][1,2,4]triazin-4(3H)-one] | < 1000 | 5020 | 5180 |  |
| CC1CN(Cc2cccc(Cl)c2Cl)CC1c1nn2c(C3CCOCC3)ncc2c(=O)[nH]1 (single isomer, unassigned; (+)) [(+)-2-((3,4-trans)-1-(2,3-dichlorobenzyl)-4-methylpyrrolidin-3-yl)-7-(tetrahydro-2H-pyran-4-yl)imidazo[5,1-f][1,2,4]triazin-4(3H)-one] |  |  |  | IC50 (PDE9A2): < 1000 nM; PDE1A selectivity (versus PDE9A2) (PDE1A; [2]): 195; PDE1B selectivity (versus PDE9A2) (PDE1B; [3]): 199 |
| CC1CN(Cc2ccc(Cl)cc2Cl)CC1c1nn2c(C3CCOCC3)ncc2c(=O)[nH]1 (single isomer, unassigned; (+)) [(+)-2-((3,4-trans)-1-(2,4-dichlorobenzyl)-4-methylpyrrolidin-3-yl)-7-(tetrahydro-2H-pyran-4-yl)imidazo[5,1-f][1,2,4]triazin-4(3H)-one] | < 1000 | 598 | 994 |  |
| CC1CN(Cc2cc(Cl)ccc2Cl)CC1c1nn2c(C3CCOCC3)ncc2c(=O)[nH]1 (single isomer, unassigned; (+)) [(+)-2-((3,4-trans)-1-(2,5-dichlorobenzyl)-4-methylpyrrolidin-3-yl)-7-(tetrahydro-2H-pyran-4-yl)imidazo[5,1-f][1,2,4]triazin-4(3H)-one] | < 1000 | 274 | 90 |  |
| CC1CN(Cc2c(F)ccc(F)c2Cl)CC1c1nn2c(C3CCOCC3)ncc2c(=O)[nH]1 (single isomer, unassigned; (+)) [(+)-2-((3,4-trans)-1-(2-chloro-3,6-difluorobenzyl)-4-methylpyrrolidin-3-yl)-7-(tetrahydro-2H-pyran-4-yl)imidazo[5,1-f][1,2,4]triazin-4(3H)-one] |  |  |  | IC50 (PDE9A2): < 1000 nM; PDE1A selectivity (versus PDE9A2) (PDE1A; [2]): 118; PDE1B selectivity (versus PDE9A2) (PDE1B; [3]): 231 |
| CC1CN(Cc2cc(F)ccc2Cl)CC1c1nn2c(C3CCOCC3)ncc2c(=O)[nH]1 (single isomer, unassigned; (+)) [(+)-2-((3,4-trans)-1-(2-chloro-5-fluorobenzyl)-4-methylpyrrolidin-3-yl)-7-(tetrahydro-2H-pyran-4-yl)imidazo[5,1-f][1,2,4]triazin-4(3H)-one] |  |  |  | IC50 (PDE9A2): < 1000 nM; PDE1A selectivity (versus PDE9A2) (PDE1A; [2]): 177; PDE1B selectivity (versus PDE9A2) (PDE1B; [3]): 73 |
| CC1CN(Cc2c(F)cccc2Cl)CC1c1nn2c(C3CCOCC3)ncc2c(=O)[nH]1 (single isomer, unassigned; (+)) [(+)-2-((3,4-trans)-1-(2-chloro-6-fluorobenzyl)-4-methylpyrrolidin-3-yl)-7-(tetrahydro-2H-pyran-4-yl)imidazo[5,1-f][1,2,4]triazin-4(3H)-one] |  |  |  | IC50 (PDE9A2): < 1000 nM; PDE1A selectivity (versus PDE9A2) (PDE1A; [2]): 196; PDE1B selectivity (versus PDE9A2) (PDE1B; [3]): 252 |
| COc1ccc(F)c(CN2CC(C)C(c3nn4c(C5CCOCC5)ncc4c(=O)[nH]3)C2)c1 (single isomer, unassigned; (+)) [(+)-2-((3,4-trans)-1-(2-fluoro-5-methoxybenzyl)-4-methylpyrrolidin-3-yl)-7-(tetrahydro-2H-pyran-4-yl)imidazo[5,1-f][1,2,4]triazin-4(3H)-one] | < 1000 | 340 | 255 |  |
| CC1CN(Cc2ccc(Cl)c(Cl)c2)CC1c1nn2c(C3CCOCC3)ncc2c(=O)[nH]1 (single isomer, unassigned; (+)) [(+)-2-((3,4-trans)-1-(3,4-dichlorobenzyl)-4-methylpyrrolidin-3-yl)-7-(tetrahydro-2H-pyran-4-yl)imidazo[1,5-f][1,2,4]triazin-4(3H)-one] | < 1000 | 1297 | 2627 |  |

More lines, main results first:

| IC50 (PDE9A2; Table 1, 10 concentrations) [nM] | PDE1A selectivity (versus PDE9A2) (PDE1A; [1]) | PDE1B selectivity (versus PDE9A2) (PDE1B; [1]) | Compound | other results |
| --- | --- | --- | --- | --- |
| < 1000 | 159 | 218 | CC1CN(Cc2cccc(F)c2F)CC1c1nn2c(C3CCOCC3)ncc2c(=O)[nH]1 (single isomer, unassigned; (+)) [(+)-2-((3,4-trans)-1-(2,3-difluorobenzyl)-4-methylpyrrolidin-3-yl)-7-(tetrahydro-2H-pyran-4-yl)imidazo[5,1-f][1,2,4]triazin-4(3H)-one] |  |
| < 1000 | 97 | 118 | CC1CN(Cc2cc(F)ccc2F)CC1c1nn2c(C3CCOCC3)ncc2c(=O)[nH]1 (single isomer, unassigned; (+)) [(+)-2-((3,4-trans)-1-(2,5-difluorobenzyl)-4-methylpyrrolidin-3-yl)-7-(tetrahydro-2H-pyran-4-yl)imidazo[5,1-f][1,2,4]triazin-4(3H)-one] |  |
| < 1000 | 363 | 279 | CC1CN(Cc2ccccc2N(C)C)CC1c1nn2c(C3CCOCC3)ncc2c(=O)[nH]1 (single isomer, unassigned; (+)) [(+)-2-((3,4-trans)-1-(2-(dimethylamino)benzyl)-4-methylpyrrolidin-3-yl)-7-(tetrahydro-2H-pyran-4-yl)imidazo[5,1-f][1,2,4]triazin-4(3H)-one] |  |
| < 1000 | 104 | 28 | CC1CN(Cc2ccccc2Br)CC1c1nn2c(C3CCOCC3)ncc2c(=O)[nH]1 (single isomer, unassigned; (+)) [(+)-2-((3,4-trans)-1-(2-bromobenzyl)-4-methylpyrrolidin-3-yl)-7-(tetrahydro-2H-pyran-4-yl)imidazo[5,1-f][1,2,4]triazin-4(3H)-one] |  |
| < 1000 | 92 | 48 | CC1CN(Cc2ccccc2Cl)CC1c1nn2c(C3CCOCC3)ncc2c(=O)[nH]1 (single isomer, unassigned; (+)) [(+)-2-((3,4-trans)-1-(2-chlorobenzyl)-4-methylpyrrolidin-3-yl)-7-(tetrahydro-2H-pyran-4-yl)imidazo[5,1-f][1,2,4]triazin-4(3H)-one] |  |
| < 1000 | 300 | 442 | CC1CN(Cc2ccccc2F)CC1c1nn2c(C3CCOCC3)ncc2c(=O)[nH]1 (single isomer, unassigned; (+)) [(+)-2-((3,4-trans)-1-(2-fluorobenzyl)-4-methylpyrrolidin-3-yl)-7-(tetrahydro-2H-pyran-4-yl)imidazo[5,1-f][1,2,4]triazin-4(3H)-one] |  |
| < 1000 | 337 | 230 | COc1ccccc1CN1CC(C)C(c2nn3c(C4CCOCC4)ncc3c(=O)[nH]2)C1 (single isomer, unassigned; (+)) [(+)-2-((3,4-trans)-1-(2-methoxybenzyl)-4-methylpyrrolidin-3-yl)-7-(tetrahydro-2H-pyran-4-yl)imidazo[5,1-f][1,2,4]triazin-4(3H)-one] |  |
